Results published in patent US8399520B2, “Selective estrogen receptor modulator” (Eisai R&D Management Co., Ltd., priority 2002, dated 2013).

Target: T1, estrogen receptor derived from bovine uterus (Bos taurus, UniProt P49884)
T1 construct: estrogen receptor derived from bovine uterus was diluted with the assay buffer solution so that 10 to 20 μg total protein was present; from tissue; host or cells: bovine uterus
T1 sequence (P49884 1-596): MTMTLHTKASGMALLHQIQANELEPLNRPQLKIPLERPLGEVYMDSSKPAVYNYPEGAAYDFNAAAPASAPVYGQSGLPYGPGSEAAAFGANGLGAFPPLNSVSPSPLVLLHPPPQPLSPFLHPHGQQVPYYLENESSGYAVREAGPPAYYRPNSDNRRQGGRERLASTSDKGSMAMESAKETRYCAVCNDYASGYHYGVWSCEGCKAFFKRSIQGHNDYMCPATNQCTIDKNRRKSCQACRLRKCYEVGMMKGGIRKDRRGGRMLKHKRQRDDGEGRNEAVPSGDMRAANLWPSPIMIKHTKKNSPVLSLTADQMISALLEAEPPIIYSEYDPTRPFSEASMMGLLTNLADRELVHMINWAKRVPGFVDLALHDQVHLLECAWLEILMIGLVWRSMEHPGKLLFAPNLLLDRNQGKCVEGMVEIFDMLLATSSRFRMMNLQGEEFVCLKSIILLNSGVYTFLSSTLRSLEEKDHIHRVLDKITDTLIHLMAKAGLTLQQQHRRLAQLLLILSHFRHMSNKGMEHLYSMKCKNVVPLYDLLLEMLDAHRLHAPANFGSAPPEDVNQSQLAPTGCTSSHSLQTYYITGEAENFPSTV
Assay: In vitro estrogen receptor binding assay
Details: read-out: Estrogen receptor binding affinity: Ki
Description: The binding affinity of the compound according to the present invention to estrogen receptor was measured using an in vitro estrogen receptor binding assay. The binding affinity measures the ability of the compound according to the present invention to remove [^3H]-estradiol from estrogen receptor derived from bovine uterus. The following materials were used in this assay: (1) the assay buffer solution was 20 mM Tris/HCl (pH 7.5) containing 1 mM dithiothreitol (DTT), 1 mM EDTA and 10% glycerol; (2) radioactive ligand was [^3H]-estradiol purchased from Amersham Life Science; (3) the cold ligand was diethylstilbestrol purchased from sigma (Sigma); and (4) the estrogen receptor was derived from bovine uterus. The compound to be tested was prepared as a 10% DMSO solution. [^3H]-estradiol was dissolved in the assay buffer solution so as to obtain a final concentration of 1 nM. […] Each plate contains total binding, non-specific binding and the binding which were not inhibited by various concentrations of the compound. The plate was incubated for 1 hour at room temperature. […] These mixtures were centrifuged, and the supernatant thereof was evaluated for its radioactivity using a liquid scintillation counter. Specific binding was calculated by subtracting non-specific binding dpm (counts remaining in the supernatant obtained by centrifugal separation of a reaction mixture containing estrogen receptor derived from bovine uterus, radioactive ligand and excess cold ligand) from the total binding dpm (counts remaining in the supernatant obtained by centrifugal separation of a reaction mixture containing estrogen receptor derived from bovine uterus and radioactive ligand only). The effectiveness of the compound was evaluated by Ki. […] C is the concentration of [^3H]-estradiol in the reaction mixture, and Kd is the [^3H]-estradiol dissociation constant. The Kd was determined by Scatchard analysis. That is to say, various concentrations of [^3H]-estradiol were used to measure the concentration of specifically bound [^3H]-estradiol, which served as the horizontal axis, the value which was obtained by dividing the concentration of specifically bound [^3H]-estradiol by the concentration [^3H]-estradiol not bound to the receptor served as the vertical axis to produce a plot, and the negative value of the inverse of the slope of the resulting straight line was used as Kd.

| Compound | Ki [nM] |
| --- | --- |
| CN(Cc1ccc(OCCN2CCCCC2)cc1)c1cc(O)ccc1-c1ccc2cc(O)ccc2c1 [Example 113, 6-{4-Hydroxy-2-{methyl[4-(2-piperidin-1-ylethoxy)benzyl]amino}phenyl}naphthalen-2-ol] | 1.6 |
| O=c1cccc(C2=Cc3ccc(O)cc3CCC2)n1Cc1ccc(OCCN2CCCCCC2)cc1 [Example 15, 1-[4-(2-Azepan-1-ylethoxy)benzyl]-6-(2-hydroxy-8,9-dihydro-7H-benzocyclohepten-6-yl)-1H-pyridin-2-one] | 60 |
| CCN(CC)c1cc(O)ccc1C1CCc2cc(O)ccc2C1 (centres unmarked) [Example 44, 6-(2-Diethylamino-4-hydroxyphenyl)-5,6,7,8-tetrahydronaphthalen-2-ol] | 21 |
| CC1(C)c2ccc(O)cc2CCC1c1ccc(O)cc1Nc1ccc(OCCN2CCCCC2)c(F)c1 (centres unmarked) [Example 305, 6-{2-[3-Fluoro-4-(2-piperidin-1-ylethoxy)phenylamino]-4-hydroxyphenyl}-5,5-dimethyl-5,6,7,8-tetrahydronaphthalen-2-ol] | 8.6 |
| Oc1ccc2c(c1)CCN(c1cc(O)ccc1Cc1ccc(OCCN3CCCCC3)cc1)CC2 [Example 21, 3-{5-Hydroxy-2-[4-(2-piperidin-1-ylethoxy)benzyl]phenyl}-2,3,4,5-tetrahydro-1H-benz[d]azepin-7-ol] | 47 |
| O=C(c1ccc(OCCN2CCCCC2)cc1)c1cc(O)ccc1-c1ccc2cc(O)ccc2c1 [Example 8, [5-Hydroxy-2-(6-hydroxynaphthalen-2-yl)phenyl][4-(2-piperidin-1-yl-ethoxy)phenyl]methanone] | 0.64 |
| ON=C1CCc2cc(-c3ccc(O)cc3Nc3ccc(OCCN4CCCCC4)cc3)ccc21 [Example 327, 5-{4-Hydroxy-2-[4-(2-piperidin-1-ylethoxy)phenylamino]phenyl}indan-1-one oxime] | 42 |
| CCN(Cc1ccncc1)c1cc(O)ccc1C1CCc2cc(O)ccc2C1 (centres unmarked) [Example 54, 6-{2-[Ethyl(pyridin-4-ylmethyl)amino]-4-hydroxyphenyl}-5,6,7,8-tetrahydronaphthalen-2-ol] | 32 |
| CCN(Cc1ccc(OCCN2CCCCCC2)cc1)c1cc(O)ccc1C1=Cc2ccc(O)cc2CC1(C)C [Example 311, 6-{2-{[4-(2-Azepan-1-ylethoxy)benzyl]ethylamino}-4-hydroxyphenyl}-7,7-dimethyl-7,8-dihydronaphthalen-2-ol] | 5.1 |
| CCN(Cc1ccc(OCCN2CCCCC2)c(F)c1)c1cc(O)ccc1[C@@H]1CCc2cc(O)ccc2C1 [188 (R), (R)-6-{2-{ethyl-[3-fluoro-4-(2-piperidin-1-ylethoxy)benzyl]amino}-4-hydroxyphenyl}-5,6,7,8-tetrahydronaphthalen-2-ol] | 1.2 |
| CCN(Cc1ccc(OCCN2CCCCC2)c(F)c1)c1ccc(F)cc1C1CCc2cc(O)ccc2C1 (centres unmarked) [Example 295, 6-{2-{Ethyl[3-fluoro-4-(2-piperidin-1-ylethoxy)benzyl]amino}-5-fluorophenyl}-5,6,7,8-tetrahydronaphthalen-2-ol] | 17 |
| CC(C)N(CCOc1ccc(CCc2cc(O)ccc2C2CCc3cc(O)ccc3C2)cc1)C(C)C (centres unmarked) [Example 357, 6-{2-{2-[4-(2-Diisopropylaminoethoxy)phenyl]ethyl}-4-hydroxyphenyl}-5,6,7,8-tetrahydronaphthalen-2-ol] | 8.2 |
| CN(CCc1ccc(O)cc1)c1cc(O)ccc1C1CCc2cc(O)ccc2C1 (centres unmarked) [Example 48, 6-{4-Hydroxy-2-{[2-(4-hydroxyphenyl)ethyl]methylamino}phenyl}-5,6,7,8-tetrahydronaphthalen-2-ol] | 13 |
| Oc1ccc(-c2nc3ccc(O)cc3s2)c(NCc2ccc(OCCN3CCCCC3)cc2)c1 [Example 319, 2-{4-Hydroxy-2-[4-(2-piperidin-1-ylethoxy)benzylamino]phenyl}benzothiazol-6-ol] | 1.6 |

Further compounds by falling Ki, results first:

| Ki [nM] | Compound |
| --- | --- |
| 94 | CCN(Cc1ccc(OCCN2CCCCCC2)cc1)c1cc(O)ccc1C1CCN(c2cccc(O)c2)C1 (centres unmarked) [Example 329, 3-{[4-(2-Azepan-1-ylethoxy)benzyl]ethylamino}-4-[1-(3-hydroxyphenyl)pyrrolidin-3-yl]phenol] |
| 32 | CCN(Cc1ccc(OCCN2CCCCCC2)cc1)c1cccc(C)c1C1CCc2cc(O)ccc2C1 (centres unmarked) [Example 293, 6-{2-{[4-(2-Azepan-1-ylethoxy)benzyl]ethylamino}-6-methylphenyl}-5,6,7,8-tetrahydronaphthalen-2-ol] |
| 31 | CN(Cc1ccc(OCCN2CCCCC2)cc1)c1cc(O)ccc1CCc1ccc(O)cc1 [Example 343, 4-[2-(4-Hydroxyphenyl)ethyl]-3-{methyl-[4-(2-piperidin-1-ylethoxy)benzyl]amino}phenol] |
| 22 | Oc1ccc2c(c1)CCC(c1ccc(O)cc1N1Cc3ccc(OCCN4CCCCC4)cc3C1)C2 (centres unmarked) [Example 338, 6-{4-Hydroxy-2-[5-(2-piperidin-1-ylethoxy)-1,3-dihydroisoindol-2-yl]phenyl}-5,6,7,8-tetrahydronaphthalen-2-ol] |
| 18 | OCCN(Cc1ccc(OCCN2CCCCCC2)cc1)c1cc(O)ccc1C1CCc2cc(O)ccc2C1 (centres unmarked) [Example 177, 6-{2-{[4-(2-Azepan-1-ylethoxy)benzyl](2-hydroxyethyl)amino}-4-hydroxyphenyl}-5,6,7,8-tetrahydronaphthalen-2-ol] |
| 16 | Oc1ccc(/C=C/c2ccc(O)cc2NCc2ccc(OCCN3CCCCC3)c(F)c2)cc1 [Example 349, 3-[3-Fluoro-4-(2-piperidin-1-ylethoxy)benzylamino]-4-[2-(4-hydroxyphenyl)vinyl]phenol] |
| 13 | CCN(Cc1ccc(OCCN2CCCCCC2)cc1)c1cc(O)ccc1C1CCCc2cc(O)ccc2C1 (centres unmarked) [Example 298, 6-{2-{[4-(2-Azepan-1-ylethoxy)benzyl]ethylamino}-4-hydroxyphenyl}-6,7,8,9-tetrahydro-5H-benzocyclohepten-2-ol] |
| 9.8 | CCN(Cc1ccc(OCCN2CCCCC2)cc1)c1cc(O)ccc1CC1CCc2cc(O)ccc2C1 (centres unmarked) [Example 791, 6-{2-{Ethyl[4-(2-piperidin-1-ylethoxy)benzyl]amino}-4-hydroxybenzyl}-5,6,7,8-tetrahydronaphthalen-2-ol] |
| 8.4 | CCN(Cc1ccccc1)c1cc(O)ccc1C1CCc2cc(O)ccc2C1 (centres unmarked) [Example 45, 6-[2-(Benzylethylamino)-4-hydroxyphenyl]-5,6,7,8-tetrahydronaphthalen-2-ol] |
| 8.2 | Oc1ccc2c(c1)CCC(c1ccc(O)cc1NCc1ccc(OCCN3CCCCC3)cc1)=C2 [Example 130, 6-{4-Hydroxy-2-[4-(2-piperidin-1-ylethoxy)benzylamino]phenyl}-7,8-dihydronaphthalen-2-ol] |
| 6.3 | CC(C)(Cc1ccc(O)cc1Oc1ccc(OCCN2CCCCC2)cc1)c1ccc(O)cc1 [Example 776, 4-[2-(4-Hydroxyphenyl)-2-methylpropyl]-3-[4-(2-piperidin-1-ylethoxy)phenoxy]phenol] |
| 5 | CCN1CCN(CCOc2ccc(CN(CC)c3cc(O)ccc3C3CCc4cc(O)ccc4C3)cc2)CC1 (centres unmarked) [Example 373, 6-{2-{Ethyl{4-[2-(4-ethylpiperazin-1-yl)ethoxy]benzyl}amino}-4-hydroxyphenyl}-5,6,7,8-tetrahydronaphthalen-2-ol] |
| 3.1 | CCN(Cc1ccc(OCCN2CCCCC2)c(F)c1)c1cc(O)ccc1-c1cc2ccc(O)cc2s1 [Example 322, 2-{2-{Ethyl[3-fluoro-4-(2-piperidin-1-ylethoxy)benzyl]amino}-4-hydroxyphenyl}benzo[b]thiophen-6-ol] |
| 1.8 | CCN(Cc1ccc(OC2CC3CCC(C2)N3C)c(F)c1)c1cc(O)ccc1C1CCc2cc(O)ccc2C1 (centres unmarked) [Example 367, 6-{2-{Ethyl[3-fluoro-4-(8-methyl-8-azabicyclo[3.2.1]oct-3-yloxy)benzyl]amino}-4-hydroxyphenyl}-5,6,7,8-tetrahydronaphthalen-2-ol] |
| 1.1 | CCNCCOc1ccc(CN(CC)c2cc(O)ccc2C2CCc3cc(O)ccc3C2)cc1 (centres unmarked) [Example 379, 6-{2-{Ethyl[4-(2-ethylaminoethoxy)benzyl]amino}-4-hydroxyphenyl}-5,6,7,8-tetrahydronaphthalen-2-ol] |
